According to patent US11603359B2, “Benzothiadiazepine compounds and their use as bile acid modulators” (Albireo AB, priority 2019, dated 2023):

Key:
human LBAT = biological target: T1, human LBAT (Homo sapiens, UniProt Q14973); assay: LBAT (h/m) assay, human LBAT-overexpressing cells, 3H-taurocholic acid uptake; assay type: cell-based; details: 0.3 μM 3H-taurocholic acid + 7.5 μM cold taurocholic acid, 20 minutes, read-out: hLBAT IC50
T1 construct: expressed in transfected cells; Geneticin-selected LBAT-overexpressing cells
T1 sequence (Q14973 1-349): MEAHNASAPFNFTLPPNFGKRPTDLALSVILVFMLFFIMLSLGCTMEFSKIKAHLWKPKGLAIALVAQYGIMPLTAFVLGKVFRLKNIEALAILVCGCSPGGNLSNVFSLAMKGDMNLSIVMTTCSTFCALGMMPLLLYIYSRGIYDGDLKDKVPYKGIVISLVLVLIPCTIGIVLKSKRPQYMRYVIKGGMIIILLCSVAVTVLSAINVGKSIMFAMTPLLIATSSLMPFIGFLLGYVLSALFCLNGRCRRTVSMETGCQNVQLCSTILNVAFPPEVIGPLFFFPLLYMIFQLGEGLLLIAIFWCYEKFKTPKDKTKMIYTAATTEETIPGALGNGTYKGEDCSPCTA
Procedure: 20,000 cells (Human or Mouse LBAT-overexpressing cells) were seeded in 96-wells plate (Corning CLS3809) in 100 μL MEM-alpha medium (Gibco 12571-063) supplemented with 10% FBS (Gibco 10438026) containing Geneticin (Gibco 10131-027) (1 mg/mL) and incubated at 37° C. in 5% CO2 for 24 hours. After incubation, media was decanted from the wells and cells were washed two times with 300 μL of basal MEM-alpha medium (FBS-free). After decanting basal MEM-alpha medium each time, plates were tapped against paper towel to ensure maximum removal of residual media.
For human LBAT, incubation mix was prepared by adding test inhibitor dilutions (3-fold serial dilution in DMSO (Sigma D2650), 10 points) in MEM-alpha (without FBS) containing 0.3 μM 3H-taurocholic acid (ARC ART-1368) and 7.5 μM cold taurocholic acid (Sigma T4009) (maintaining 0.2% final DMSO concentration). For mouse LBAT, incubation mix was prepared by adding test inhibitor dilutions (3-fold serial dilution in DMSO, 10 points) in MEM-alpha (without FBS) containing 0.3 μM 3H-taurocholic acid and 25 μM cold taurocholic acid maintaining 0.2% final DMSO concentration).
50 μL of incubation mix containing test inhibitors was then added to the wells (in duplicate) and the plates were incubated for 20 minutes in a CO2 incubator at 37° C. After incubation, the reaction was stopped by keeping the plates on ice water mix for 2-3 minutes and then the incubation mix was aspirated completely from the wells. The wells were washed two times with 250 μL of chilled unlabelled 1 mM taurocholic acid dissolved in HEPES (Gibco 15630080)-buffered (10 mM) HBSS (Gibco 14175079) (pH 7.4). The plates were tapped against a paper towel after every wash to ensure maximum removal of blocking buffer.
100 μL of MicroScint-20 (PerkinElmer 6013621) was added to the wells and kept overnight at room temperature before reading the plates in TopCount NXT™ Microplate Scintillation and Luminescence Counter from PerkinElmer under 3H Test protocol (set at 120 seconds reading time per well, with normal plate orientation).
All test compounds were provided in powder form at room temperature. 10 mM DMSO stocks of the test compounds were prepared, aliquoted and stored at −20° C. From the 10 mM DMSO stock of the compounds, a 3-fold serial dilution in DMSO was prepared to get a total of 10 dilutions of the test compounds. 0.5 μL of this dilution in DMSO was added to 250 μL of FBS-free basal media containing 3H-taurocholic acid and cold taurocholic acid to prepare the incubation mixture.

[1] = Bioavailability studies in rats; assay type: in vivo; details: male, Wistar, plasma, rat, 1 mg/kg intravenous vs 10 mg/kg oral
Procedure: (§1) Male mice (C57BL/6 or CD1) or Wistar rats of 8-9 weeks old were used. For each test compound, two groups of 3 animals each were used. One group was administered a single intravenous dose of 1 mg/kg (vehicle 100% DMSO) through the tail vein and the other group was administered a single oral dose of 10 mg/kg through gavage needle. The group that was administered an oral dose was fasted overnight. Blood samples were collected after 0.083, 0.25, 0.5, 1, 2, 4, 6, 8 and 24 hours following intravenous administration, and after 0.25, 0.5, 1, 2, 4, 6, 8 and 24 hours following oral administration. Blood samples were taken from saphenous vein. 0.2% EDTA was used as the anticoagulant. The samples were analyzed by a discovery grade bioanalytical method developed for the estimation of test compound in plasma, using an LC-MS/MS system.

[2] = Bioavailability studies in mice; assay type: in vivo, mice (C57BL/6 or CD1); details: male, mouse, plasma, 1 mg/kg intravenous vs 10 mg/kg oral
Procedure: as §1

| SMILES | IC50 (human LBAT) [nM] | other results |
| --- | --- | --- |
| CCCCC1(CCCC)CN(c2ccccc2)c2cc(SC)c(OCC(O)C(=O)O)cc2S(=O)(=O)N1 (racemic) [Example 5, 3-((3,3-dibutyl-7-(methylthio)-1,1-dioxido-5-phenyl-2,3,4,5-tetrahydro-1,2,5-benzothiadiazepin-8-yl)oxy)-2-hydroxypropanoic acid] | 1880 | – |
| CCCCC1(CC)CN(c2ccccc2)c2cc(N(C)C)c(OCCC(=O)O)cc2S(=O)(=O)N1 (racemic) [Example 11, 3-((3-Butyl-7-(dimethylamino)-3-ethyl-1,1-dioxido-5-phenyl-2,3,4,5-tetrahydro-1,2,5-benzothiadiazepin-8-yl)oxy)propanoic acid] | 1170 | – |
| CCCCC1(CC)CN(c2ccccc2)c2cc(SC)c(OCCC(=O)O)cc2S(=O)(=O)N1 (single isomer, unassigned) [Example 4, 3-((3-butyl-3-ethyl-7-(methylthio)-1,1-dioxido-5-phenyl-2,3,4,5-tetrahydro-1,2,5-benzothiadiazepin-8-yl)oxy)propanoic acid] | 3650 | bioavailability [1]: 90%; bioavailability ([2]; CD1 mice): 45% |
| CCCCC1(CCCC)CN(c2ccccc2)c2cc(SC)c(OCC(O)C(=O)O)cc2S(=O)(=O)N1 (single isomer, unassigned) [Example 7, 3-((3,3-dibutyl-7-(methylthio)-1,1-dioxido-5-phenyl-2,3,4,5-tetrahydro-1,2,5-benzothiadiazepin-8-yl)oxy)-2-hydroxypropanoic acid] | 2220 | – |
| CCCCC1(CC)CN(c2ccccc2)c2cc(N(C)C)c(OCCC(=O)O)cc2S(=O)(=O)N1 (single isomer, unassigned) [Example 12, 3-((3-butyl-7-(dimethylamino)-3-ethyl-1,1-dioxido-5-phenyl-2,3,4,5-tetrahydro-1,2,5-benzothiadiazepin-8-yl)oxy)propanoic acid] | 2220 | – |
| CCCCC1(CCCC)CN(c2ccccc2)c2cc(SC)c(OCCC(=O)O)cc2S(=O)(=O)N1 [Example 1, 3-((3,3-Dibutyl-7-(methylthio)-1,1-dioxido-5-phenyl-2,3,4,5-tetrahydro-1,2,5-benzothiadiazepin-8-yl)oxy)propanoic acid] | 2910 | bioavailability ([1]; Na^+ salt): 98%; bioavailability ([2]; C57BL/6 mice): 34%; bioavailability ([2]; CD1 mice): 59% |
| CCCCC1(CCCC)CN(c2ccccc2)c2cc(SC)c(OC(C)CC(=O)O)cc2S(=O)(=O)N1 (centres unmarked) [Example 8, 3-((3,3-Dibutyl-7-(methylthio)-1,1-dioxido-5-phenyl-2,3,4,5-tetrahydro-1,2,5-benzothiadiazepin-8-yl)oxy)butanoic acid] | 2630 | – |
| CCCCC1(CCCC)CN(c2ccccc2)c2cc(Cl)c(OCCC(=O)O)cc2S(=O)(=O)N1 [Example 9, 3-((3,3-dibutyl-7-chloro-1,1-dioxido-5-phenyl-2,3,4,5-tetrahydro-1,2,5-benzothiadiazepin-8-yl)oxy)propanoic acid] | 1620 | – |
| CCCCC1(CCCC)CN(c2ccc(O)cc2)c2cc(SC)c(OCCC(=O)O)cc2S(=O)(=O)N1 [Example 10, 3-((3,3-dibutyl-5-(4-hydroxyphenyl)-7-(methylthio)-1,1-dioxido-2,3,4,5-tetrahydro-1,2,5-benzothiadiazepin-8-yl)oxy)propanoic acid] | 7200 | – |
